Source: US12291721B2, “Activated lymphocytes comprising cytokine-induced killer cells and preparation method therefor” (GREENCROSSCELL, priority 2019, dated 2025)

Tests used:
[1] = tested on: human pancreatic cancer (AsPC-1); experiment: Anticancer effects on human pancreatic cancer (AsPC-1) xenograft; assay type: in vivo, nude mice
Procedure: Nude mice were purchased and stored in a specific pathogen free (SPF) room of the Korea Research Institute of Bioscience and Biotechnology, and allowed to acclimate for 1 week before use. Human pancreatic cancer, that is, AsPC1 cells were injected subcutaneously into each nude mouse at a concentration of 9×10^6 cells. […] As a positive control group, adriamycin was administered intravenously at a concentration of 2 mg/kg once a week for total 4 times.
(§1) Standard deviations (SDs) and p-values of all test results were calculated using ANOVA (Prisim, GraphPad software, USA) and student's t-test.

[2] = tested on: human colon cancer (SW620); experiment: Anticancer effects on human colon cancer (SW620) xenograft; assay type: in vivo, nude mice
Procedure: Nude mice were purchased and stored in a specific pathogen free (SPF) room of the Korea Research Institute of Bioscience and Biotechnology, and allowed to acclimate for 1 week before use. Human colon cancer, that is, SW620 cells were injected subcutaneously into each nude mouse at a concentration of 6×10^6 cells. […] As a positive control group, adriamycin was administered intravenously at a concentration of 2 mg/kg once a week for total 4 times.
as §1

[3] = tested on: human melanoma cancer (LOX-IMV1); experiment: Anticancer effects on human melanoma cancer (LOX-IMV1) xenograft
Procedure: Nude mice were purchased and stored in a specific pathogen free (SPF) room of the Korea Research Institute of Bioscience and Biotechnology, and allowed to acclimate for 1 week before use. Human melanoma cancer, that is, LOX-IMV1 cells were injected subcutaneously into each nude mouse at a concentration of 1.5×10^6 cells. […] As a positive control group, adriamycin was administered intravenously at a concentration of 2 mg/kg once a week for total 3 times.
as §1

[4] = tested on: human renal cancer (ACHN); experiment: Anticancer effects on human renal cancer (ACHN) xenograft
Procedure: Nude mice were purchased and stored in a specific pathogen free (SPF) room of the Korea Research Institute of Bioscience and Biotechnology, and allowed to acclimate for 1 week before use. Human renal cancer, that is, ACHN cells were injected subcutaneously into each nude mouse at a concentration of 1.2×10^7 cells. […] As a positive control group, adriamycin was administered intravenously at a concentration of 2 mg/kg once a week for total 4 times.
Standard deviations (SDs) and p-values of all test results were calculated using ANOVA (Prisim. GraphPad software, USA) and student's t-test.

[5] = tested on: human prostate cancer (PC-3); experiment: Anticancer effects on human prostate cancer (PC-3) xenograft; assay type: in vivo, nude mice
Procedure: Nude mice were purchased and stored in a specific pathogen free (SPF) room of the Korea Research Institute of Bioscience and Biotechnology, and allowed to acclimate for 1 week before use. Human prostate cancer, that is, PC-3 cells were injected subcutaneously into each nude mouse at a concentration of 9×10^6 cells. […] As a positive control group, adriamycin was administered intravenously at a concentration of 2 mg/kg once a week for total 4 times.
as §1

[6] = adriamycin 2 mg/kg i.v., day 25
[7] = day 25 compared with Day-1 (100%), adriamycin 2 mg/kg
[8] = adriamycin 2 mg/kg i.v., day 15
[9] = adriamycin 2 mg/kg i.v., day 28
[10] = adriamycin 2 mg/kg i.v., day 22

## COc1cccc2c1C(=O)c1c(O)c3c(c(O)c1C2=O)C[C@@](O)(C(=O)CO)C[C@@H]3O[C@H]1C[C@H](N)[C@H](O)[C@H](C)O1 [adriamycin]
[1]; [6]
  growth inhibition (tumor size): 48%
  growth inhibition (tumor weight): 44%
  tumor size: 130±28 mm^3
  tumor weight: 473 ± 64 mg
[1]; adriamycin (2 mg/kg), day 25, AsPC-1
  Tumor growth rate (%) compared to the control group: 55 ± 8%
[1]; [7]
  body weight change: 125%
[2]; [6]
  growth inhibition (tumor size): 48%
  growth inhibition (tumor weight): 49%
  tumor size: 142±97 mm^3
  tumor weight: 834 ± 306 mg
[2]; adriamycin (2 mg/kg), day 25, SW-620
  Tumor growth rate (%) compared to the control group: 54 ± 28%
[2]; [7]
  body weight change: 114%
[3]; [8]
  growth inhibition (tumor size): 72%
  growth inhibition (tumor weight): 70%
  tumor weight: 496 ± 306 mg
[3]; adriamycin (2 mg/kg), day 15, LOX-IMVI
  Tumor growth rate (%) compared to the control group: 30 ± 18%
[3]; day 15 compared with Day-1, adriamycin 2 mg/kg
  body weight change: 122%
[4]; [9]
  growth inhibition (tumor size): 40%
  growth inhibition (tumor weight): 37%
  tumor size: 192±44 mm^3
  tumor weight: 409 ± 41 mg
[4]; adriamycin (2 mg/kg), day 28, ACHN
  Tumor growth rate (%) compared to the control group: 63 ± 6%
[4]; day 28 compared with Day-1 (100%), adriamycin 2 mg/kg
  body weight change: 95%
[5]; [10]
  growth inhibition (tumor size): 40%
  growth inhibition (tumor weight): 40%
  tumor size: 225±59 mm^3
  tumor weight: 808 ± 156 mg
[5]; adriamycin (2 mg/kg), day 22, PC-3
  Tumor growth rate (%) compared to the control group: 60 ± 12%
[5]; day 22 compared with Day-1 (100%), adriamycin 2 mg/kg
  body weight change: 102%
